# Laboratory results from US6677310B1, “Ring-expanded nucleosides and nucleotides” (Nabi, priority 1999, dated 2004).
# Columns and labels:
# [1] = tested on: NCI-H522; format: cell-based, human; conditions: NCI-H522 (Non-Small Cell Lung Cancer), 48 h
# [2] = tested on: HL-60(TB); conditions: HL-60(TB) (Leukemia), 48 h
# Procedure: Briefly, cell suspensions that were diluted according to the particular cell type and the expected target cell density (5000-40,000 cells per well based on cell growth characteristics) were added by pipette (100 μl) into 96-well microtiter plates. Inoculates were allowed a preincubation period of 24h at 37° C. for stabilization. Dilutions at twice the intended test concentrations of the test compounds were added at time zero in 100 μl aliquots to the microtiter plate wells. The plates were incubated for 48 h in 5% CO2 atmosphere and 100% humidity. The cells were assayed by using the sulforhodamine B assay (Rubinstein, L. V. et al. J. Natl. Cancer Inst. 82:1113-118, 1990; Skehan, P. et al., J. Natl. Cancer Inst. 82:1107-1112, 1990). The plates were read by a plate reader. The following parameters were calculated from the optical densities:
# GI50, concentration of drug that causes 50% growth inhibition; where (T−T0)/(C−T0)×100=50
SMILES,GI50 [1],TGI [1],CC50 ([1]; read-out: LC50 (the source's name)),GI50 [2],TGI [2],CC50 ([2]; read-out: LC50)
"N=c1[nH]c(=O)c2ncn([C@@H]3O[C@H](CO)[C@@H](O)[C@H]3O)c2c(=O)[nH]1 [Compound 14-1, 6-Imino-6H-1-β-D-ribofuranosyl-4,5,7,8-tetrahydroimidazo[4,5-e][1,3]diazepine-4,8-dione]",> 100 µM,>100 µM,> 100 µM,–,–,–
"N=c1nc(N)c2ncn([C@@H]3O[C@H](COC(=O)c4ccccc4)[C@@H](OC(=O)c4ccccc4)[C@H]3OC(=O)c3ccccc3)c2c(N)n1 [4,8-Diamino-6H-6-imino-1(2′,3′,5′-tri-O-benzoyl-β-D-ribofuranosyl)imidazo[4,5-e][1,3]diazepine]",–,–,–,4.01 µM,18.3 µM,83.7 µM
